Our source for the inhibition values is ChEMBL document CHEMBL1146960, “Synthesis and anticancer activity of thiosemicarbazones” (Bioorg Med Chem Lett, 2006).

Common to all, as to type: functional
The subject of assay [1] is A549. Nature of the assay: Antitumor activity against A549 cell line at 0.1 umol/L by SRB method. The following applies: Homo sapiens. (In general: In SRB staining, fixed cells bind dye roughly in proportion to their protein.)
The subject of assay [2] is P388. As to the kind of experiment: Antitumor activity against P388 cell line at 10 umol/L by MTT method. The following applies: Mus musculus.
The subject of assay [3] is P388. As to the kind of experiment: Antitumor activity against P388 cell line at 1 umol/L by MTT method. The following applies: Mus musculus.
Assay [4] has as its system P388. As to the kind of experiment: Antitumor activity against P388 cell line at 0.1 umol/L by MTT method. The following applies: Mus musculus. On the technique in general: Tetrazolium assays rely on reduction of a dye to a coloured formazan, in cell work by metabolically active cells.
For assay [5], the system named is A549. Nature of the assay: Antitumor activity against A549 cell line at 10 umol/L by SRB method. The following applies: Homo sapiens.
Assay [6] has as its system A549. As to the kind of experiment: Antitumor activity against A549 cell line at 1 umol/L by SRB method. The following applies: Homo sapiens.
The subject of assay [7] is SGC-7901. Nature of the assay: Antitumor activity against SGC7901 cell line at 1 umol/L by SRB method. The following applies: Homo sapiens.
Assay [8] relates to SGC-7901. As to the kind of experiment: Antitumor activity against SGC7901 cell line at 0.1 umol/L by SRB method. The settings on record: Homo sapiens.
Assay [9] deals with SGC-7901. Nature of the assay: Antitumor activity against SGC7901 cell line at 0.01 umol/L by SRB method. The settings on record: Homo sapiens.
Assay [10] relates to SGC-7901. Nature of the assay: Antitumor activity against SGC7901 cell line at 100 umol/L by SRB method. The following applies: Homo sapiens.
In assay [11] the test system is SGC-7901. As to the kind of experiment: Antitumor activity against SGC7901 cell line at 10 umol/L by SRB method. The settings on record: Homo sapiens.
The test system of assay [12] is P388. As to the kind of experiment: Antitumor activity against P388 cell line at 100 umol/L by MTT method. The following applies: Mus musculus.
The test system of assay [13] is P388. Nature of the assay: Antitumor activity against P388 cell line at 0.01 umol/L by MTT method. The following applies: Mus musculus.

Turning to `S=C(N/N=C\c1ccccc1)N1CCN(c2ccccn2)CC1`, the inhibition at 0.1 µM with A549 [1] came out at 0.8%; in the assay on P388 [4] it was 3.7%. Besides, the inhibition at 10 µM with P388 [2] amounted to 7.3%; with A549 [5], 0%. Also, the values for the inhibition at 1 µM with P388 [3] and in the assay on A549 [6] were 4.6% and 16.4%, respectively.
As to `CCn1cc(C(=O)O)c(=O)c2cc(F)c(N3CCN(/C(S)=N/N=C(/C)c4ccccc4)CC3)cc21`, the inhibition at 0.1 µM with A549 [1] and with P388 [4] was 0% throughout. In addition, the inhibition at 10 µM with P388 [2] was 100%; in the assay with A549 [5], 63.9%. Also, the inhibition at 1 µM in the assay on P388 [3] was determined as 24.8%; in the assay with A549 [6] it was 0.8%.
With `C/C(=N/N=C(\S)N1CCN(c2ccccn2)CC1)c1ccc(C)cc1`, the inhibition at 0.1 µM was determined as 0% in the assay on A549 [1] and 28.8% in the assay with P388 [4]. Moreover, the figures for the inhibition at 10 µM with P388 [2] and in the assay with A549 [5] were 25.8% and 0%, respectively. For the same molecule, the inhibition at 1 µM came out at 21.2% in the assay with P388 [3] and 0% in the assay with A549 [6].
`C/C(=N/N=C(\S)Nc1ccc(Cl)cc1)c1cccs1`: the inhibition at 1 µM with SGC-7901 [7] and in the assay on P388 [3] was 0% throughout. The inhibition at 0.1 µM with SGC-7901 [8] and in the assay on P388 [4] was 0% throughout. For the same molecule, the inhibition at 0.01 µM with SGC-7901 [9] and in the assay with P388 [13] was 0% in each case. The inhibition at 100 µM in the assay with SGC-7901 [10] was determined as 56.7%; with P388 [12], 21.6%. In addition, the inhibition at 10 µM in the assay on SGC-7901 [11] stood at 12.7%; in the assay on P388 [2], 9.9%.
`CCn1cc(C(=O)O)c(=O)c2cc(F)c(N3CCN(/C(S)=N/N=C(/C)c4ccccn4)CC3)cc21`: the inhibition at 0.1 µM with A549 [1] and in the assay on P388 [4] was 0% throughout. In addition, the inhibition at 10 µM in the assay with P388 [2] was 26.6%; in the assay on A549 [5] it was 7.4%. Further, the inhibition at 1 µM stood at 4.6% in the assay with P388 [3] and 16.4% in the assay with A549 [6].
As for `C/C(=N/N=C(\S)Nc1ccc(C)cc1)c1cccs1`, the inhibition at 1 µM with SGC-7901 [7] amounted to 15%; in the assay with P388 [3], 5.7%. Besides, the inhibition at 0.1 µM with SGC-7901 [8] was determined as 9.6%; in the assay on P388 [4], 10.8%. Moreover, the inhibition at 0.01 µM in the assay on SGC-7901 [9] worked out at 8.8%; in the assay with P388 [13], 0%. The values for the inhibition at 100 µM with SGC-7901 [10] and in the assay on P388 [12] were 67.8% and 8.4%, respectively. Also, the inhibition at 10 µM in the assay with SGC-7901 [11] is 33.9%; in the assay on P388 [2], 9.2%.
In the case of `C/C(=N/N=C(\S)N1CCN(c2ccccn2)CC1)c1ccc(O)cc1`, the inhibition at 0.1 µM in the assay on A549 [1] was 0%; with P388 [4] it was 28.8%. The inhibition at 10 µM in the assay with P388 [2] came out at 53%; in the assay with A549 [5], 0%. The inhibition at 1 µM amounted to 25.8% with P388 [3] and 0% in the assay on A549 [6].
On to `C/C(=N/N=C(\S)Nc1cc(Cl)cc(Cl)c1)c1cccs1`, for which the inhibition at 1 µM in the assay with SGC-7901 [7] came out at 0%; with P388 [3], 7%. Also, the inhibition at 0.1 µM in the assay with SGC-7901 [8] came to 0%; in the assay with P388 [4] it was 17.6%. The inhibition at 0.01 µM in the assay with SGC-7901 [9] and in the assay on P388 [13] was 0% each time. The inhibition at 100 µM was determined as 72.9% in the assay with SGC-7901 [10] and 90.1% in the assay on P388 [12]. Also, the inhibition at 10 µM with SGC-7901 [11] came out at 27.9%; with P388 [2] it was 20.9%.
For `C/C(=N/N=C(\S)N1CCN(c2ccccn2)CC1)c1ccc([N+](=O)[O-])cc1`, the values for the inhibition at 0.1 µM with A549 [1] and in the assay on P388 [4] were 0% and 4.6%, respectively. Further, the inhibition at 10 µM came to 6.4% in the assay with P388 [2] and 16.4% in the assay on A549 [5]. Further, the inhibition at 1 µM with P388 [3] came out at 4.6%; with A549 [6], 0%.
On to `COc1ccc(/C(C)=N\N=C(/S)N2CCN(c3ccccn3)CC2)cc1`, for which the results for the inhibition at 0.1 µM in the assay with A549 [1] and with P388 [4] were 3.3% and 2.8%, respectively. Further, the inhibition at 10 µM in the assay with P388 [2] is 7.3%; in the assay on A549 [5], 0.8%. Besides, the results for the inhibition at 1 µM in the assay with P388 [3] and in the assay with A549 [6] were 3.7% and 0%, respectively.
As for `C/C(=N/N=C(\S)N1CCN(c2ccccn2)CC1)c1ccc(Cl)cc1`, the inhibition at 0.1 µM stood at 0.8% with A549 [1] and 0% with P388 [4]. Further, the inhibition at 10 µM in the assay on P388 [2] and with A549 [5] was 0% in each case. For the same molecule, the inhibition at 1 µM in the assay with P388 [3] and in the assay on A549 [6] was 0% in each case.
Consider `C/C(=N/N=C(\S)N1CCN(C2CCCCCC2)CC1)c1ccccn1`, for which the inhibition at 0.1 µM in the assay on A549 [1] is 0%; in the assay with P388 [4] it was 39.8%. The inhibition at 10 µM in the assay with P388 [2] is 96.5%; with A549 [5] it was 40%. For the same molecule, the inhibition at 1 µM in the assay with P388 [3] came to 41.6%; with A549 [6] it was 17.8%.
Regarding `C/C(=N/N=C(\S)N1CCN(c2ccccn2)CC1)c1ccco1`, the inhibition at 0.1 µM came out at 0% in the assay on A549 [1] and 37.9% in the assay with P388 [4]. In addition, the inhibition at 10 µM with P388 [2] was 77.3%; with A549 [5] it was 72.3%. The values for the inhibition at 1 µM in the assay on P388 [3] and in the assay with A549 [6] were 50% and 0%, respectively.
With `C/C(=N/N=C(\S)N1CCN(c2ccccn2)CC1)c1ccc(N)cc1`, the inhibition at 0.1 µM in the assay with A549 [1] is 0%; with P388 [4], 12.1%. Also, the inhibition at 10 µM with P388 [2] amounted to 30.3%; with A549 [5], 46.8%. In addition, the inhibition at 1 µM in the assay with P388 [3] stood at 4.6%; in the assay with A549 [6], 0%.
In the case of `C/C(=N/N=C(\S)Nc1ccc([N+](=O)[O-])cc1)c1cccs1`, the results for the inhibition at 1 µM with SGC-7901 [7] and in the assay with P388 [3] were 8.3% and 2.1%, respectively. For the same molecule, the inhibition at 0.1 µM in the assay on SGC-7901 [8] was 14.5%; with P388 [4] it was 3.6%. Further, the results for the inhibition at 0.01 µM in the assay on SGC-7901 [9] and with P388 [13] were 9.1% and 10.3%, respectively. The inhibition at 100 µM in the assay on SGC-7901 [10] turned out to be 51.7%; in the assay on P388 [12] it was 8.6%. Also, the inhibition at 10 µM in the assay on SGC-7901 [11] turned out to be 35.7%; with P388 [2], 0%.
For the molecule `CCn1cc(C(=O)O)c(=O)c2cc(F)c(N3CCN(/C(S)=N/N=C\c4ccccc4)CC3)cc21`, the inhibition at 0.1 µM with A549 [1] and in the assay on P388 [4] was 0% each time. For the same molecule, the inhibition at 10 µM in the assay on P388 [2] was 68.8%; with A549 [5], 4.1%. Moreover, the inhibition at 1 µM in the assay with P388 [3] came out at 4.6%; in the assay on A549 [6], 0.8%.
Regarding `C/C(=N/N=C(\S)N1CCN(c2ccccn2)CC1)c1ccccc1`, the inhibition at 0.1 µM in the assay with A549 [1] and in the assay with P388 [4] was 0% in each case. In addition, the inhibition at 10 µM came out at 4.6% with P388 [2] and 0.8% in the assay with A549 [5]. Moreover, the inhibition at 1 µM in the assay on P388 [3] and in the assay with A549 [6] was 0% each time.
As for `C/C(=N/N=C(\S)N1CCN(c2ccccn2)CC1)c1nccs1`, the values for the inhibition at 1 µM in the assay with SGC-7901 [7], with P388 [3] and in the assay on A549 [6] were 60.8%, 74.3% and 21.5%, respectively. Also, the inhibition at 0.1 µM turned out to be 14.3% in the assay with SGC-7901 [8], 15.6% with A549 [1] and 73.5% in the assay with P388 [4]. Moreover, the inhibition at 10 µM in the assay on SGC-7901 [11] amounted to 92.5%; in the assay on P388 [2], 94.5%; with A549 [5] it was 13.6%.
In the case of `C/C(=N/NC(=S)N1CCN(c2ccccn2)CC1)c1ccccn1`, the results for the inhibition at 0.1 µM in the assay with A549 [1] and in the assay with P388 [4] were 24.6% and 13.8%, respectively. In addition, the inhibition at 10 µM in the assay with P388 [2] and in the assay with A549 [5] was 100% each time. Besides, the inhibition at 1 µM worked out at 12.8% with P388 [3] and 19.7% in the assay on A549 [6].

Usually inhibition stands for the percentage by which the read-out fell short of the control. Low values mean little suppression, high ones strong suppression.
